From patent US20250263753A1, “BRIDGED CYCLE-BASED INHIBITORS OF DNA-DEPENDENT PROTEIN KINASE AND COMPOSITIONS AND APPLICATION IN GENE EDITING” (Juno Therapeutics, Inc., priority 2023, published 2025)
Read-outs that look alike come from different tables or passages of the source.

Key:
[1] = target: DNA-PK (Homo sapiens (Human), UniProt P78527); experiment: DNA-PK biochemical assay (Reaction Biology HotSpot kinase assay, 10 μM ATP)
Method: DNA-PK Biochemical Assay Using Reaction Biology's HotSpot Kinase Assay Protocol:
Reagent: Base Reaction buffer; 20 mM Hepes (pH 7.5), 10 mM MgCl2, 1 mM EGTA, 0.01% Brij35, 0.02 mg/ml BSA, 0.1 mM Na3VO4, 2 mM DTT, 1% DMSO Required cofactors are added individually to each kinase reaction.
Reaction Procedure: 1. Prepare substrate in freshly prepared Reaction Buffer; 2. Deliver any required cofactors to the substrate solution above; 3. Deliver kinase into the substrate solution and gently mix; 4. Deliver compounds in 100% DMSO into the kinase reaction mixture by Acoustic technology (Echo550; nanoliter range), incubate for 20 min at room temperature; 5. Deliver 33P-ATP into the reaction mixture to initiate the reaction; 6. Incubate for 2 hours at room temperature; 7. Detect kinase activity by P81 filter-binding method.

[2] = target: PI3Kα (His-PIK3CA/PIK3R1, p110 alpha/p85 alpha) (Homo sapiens (Human), UniProt P42336); experiment: PI3Kα biochemical assay (HTRF/FRET probe); format: binding; conditions: class symbol
Method: Phosphoinositide 3-kinase α (PI3Kα) Biochemical Assay: A solution was prepared containing 0.2 nM Anti-HIS-Terbium (Cisbio, 64CUSTAZU), 3.7 nM designed-probe and 1.0 nM His-PIK3CA/PIK3R1 (p110 alpha/p85 alpha) in FRET Buffer (20 mM HEPES, 10 mM MgCl2, 0.015% Brij-35, 4 mM DTT, 0.05 mg/mL BSA).

[3] = target: ATM (Homo sapiens (Human), UniProt Q13315); experiment: ATM biochemical assay (Reaction Biology HTRF kinase assay, 10 μM ATP)
Method: Ataxia-Telangiectasia Mutated (ATM) Biochemical Assay Using Reaction Biology's HTRF Kinase Assay Protocol:
The assay detects kinase activity by antibody based HTRF assay. The GST-tagged p53 protein serves as substrate and Eu-labeled-antibody with specific phosphorylation site binds upon phosphorylation which is monitored by HTRF from the anti-GST-d2.
Reagent: Reaction buffer; 50 mM Hepes (pH 7.5), 150 mM NaCl, 10 mM MnCl2, 1% Glycerol, 0.01% Brij35, 1 mM DTT, 1% DMSO.
Substrate: Human p53 (aa2-393), RBC produced in E. coli, N-terminal GST-Tag, MW=70.42 kDa.
Detection; MAb Anti-p53-pS15-Eu cryptate, CisBio cat #61P08KAZ; MAb Anti GST-d2
Reaction Procedure: 1. Deliver 2× Enzyme in wells of reaction plate except No E control wells. Add buffer instead; 2. Deliver compounds in 100% DMSO into the kinase reaction mixture by Acoustic technology (Echo550; nanoliter range), incubate for 30 min at room temperature; 3. Deliver 2× substrate+ATP mixture into the reaction mixture to initiate the reaction; 4. Incubate for 2 hours at room temperature.
HTRF Detection: 1. Deliver 2× Stop/Detection mixture and incubate for 2 hours to overnight in the dark. 2. HTRF measurement (Ex/Em1/Em2=320/615/665 nm) in EnVision.

[4] = target: PI3Kδ (His-PIK3CD/PIK3R1, p110 delta/p85 alpha) (Homo sapiens (Human), UniProt O00329); experiment: PI3Kδ biochemical assay (HTRF/FRET probe); format: binding; conditions: class symbol
Method: Phosphoinositide 3-kinase (PI3K) Biochemical Assay: A solution was prepared containing 0.2 nM Anti-HIS-Terbium (Cisbio, 64CUSTAZU), 40 nM designed-probe and 1.0 nM His-PIK3CD/PIK3R1 (p110 delta/p85 alpha) in FRET Buffer (20 mM HEPES, 10 mM MgCl2, 0.015% Brij-35, 4 mM DTT, 0.05 mg/mL BSA).

[5] = read-out: DNA-PK HotSpot 10 μM ATP IC50, class symbol

PI3Kα (His-PIK3CA/PIK3R1, p110 alpha/p85 alpha), sequence (P42336 whole entry, species assumed): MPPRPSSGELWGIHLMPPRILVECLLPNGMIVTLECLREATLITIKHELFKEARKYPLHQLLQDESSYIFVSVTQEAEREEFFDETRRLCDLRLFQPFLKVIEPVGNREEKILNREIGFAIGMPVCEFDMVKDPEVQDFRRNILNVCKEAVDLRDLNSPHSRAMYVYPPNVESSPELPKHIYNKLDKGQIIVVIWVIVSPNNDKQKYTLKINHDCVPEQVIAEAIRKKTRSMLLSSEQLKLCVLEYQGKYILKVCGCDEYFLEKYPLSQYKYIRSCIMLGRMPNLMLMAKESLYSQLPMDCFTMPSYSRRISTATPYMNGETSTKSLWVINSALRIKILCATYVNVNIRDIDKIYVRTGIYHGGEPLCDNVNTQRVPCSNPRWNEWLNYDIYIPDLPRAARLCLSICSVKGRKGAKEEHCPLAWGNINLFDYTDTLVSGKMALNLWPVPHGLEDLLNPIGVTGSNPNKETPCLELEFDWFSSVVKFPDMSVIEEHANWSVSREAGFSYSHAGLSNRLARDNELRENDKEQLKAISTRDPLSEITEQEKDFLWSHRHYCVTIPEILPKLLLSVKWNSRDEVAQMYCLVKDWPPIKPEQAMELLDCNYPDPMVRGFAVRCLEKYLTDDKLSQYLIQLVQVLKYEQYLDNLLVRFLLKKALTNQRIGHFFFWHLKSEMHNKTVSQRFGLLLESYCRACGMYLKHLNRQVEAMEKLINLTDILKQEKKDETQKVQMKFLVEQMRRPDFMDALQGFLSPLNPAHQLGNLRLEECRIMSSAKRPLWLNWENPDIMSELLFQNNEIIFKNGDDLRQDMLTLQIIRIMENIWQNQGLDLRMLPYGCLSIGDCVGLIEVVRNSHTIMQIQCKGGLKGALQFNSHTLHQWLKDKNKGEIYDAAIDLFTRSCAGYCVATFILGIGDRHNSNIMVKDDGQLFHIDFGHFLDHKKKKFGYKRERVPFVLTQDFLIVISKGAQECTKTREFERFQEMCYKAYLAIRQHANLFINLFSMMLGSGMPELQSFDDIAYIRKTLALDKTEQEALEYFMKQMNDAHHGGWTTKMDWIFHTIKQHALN
PI3Kα (His-PIK3CA/PIK3R1, p110 alpha/p85 alpha), sequence (P27986 whole entry partner, species assumed): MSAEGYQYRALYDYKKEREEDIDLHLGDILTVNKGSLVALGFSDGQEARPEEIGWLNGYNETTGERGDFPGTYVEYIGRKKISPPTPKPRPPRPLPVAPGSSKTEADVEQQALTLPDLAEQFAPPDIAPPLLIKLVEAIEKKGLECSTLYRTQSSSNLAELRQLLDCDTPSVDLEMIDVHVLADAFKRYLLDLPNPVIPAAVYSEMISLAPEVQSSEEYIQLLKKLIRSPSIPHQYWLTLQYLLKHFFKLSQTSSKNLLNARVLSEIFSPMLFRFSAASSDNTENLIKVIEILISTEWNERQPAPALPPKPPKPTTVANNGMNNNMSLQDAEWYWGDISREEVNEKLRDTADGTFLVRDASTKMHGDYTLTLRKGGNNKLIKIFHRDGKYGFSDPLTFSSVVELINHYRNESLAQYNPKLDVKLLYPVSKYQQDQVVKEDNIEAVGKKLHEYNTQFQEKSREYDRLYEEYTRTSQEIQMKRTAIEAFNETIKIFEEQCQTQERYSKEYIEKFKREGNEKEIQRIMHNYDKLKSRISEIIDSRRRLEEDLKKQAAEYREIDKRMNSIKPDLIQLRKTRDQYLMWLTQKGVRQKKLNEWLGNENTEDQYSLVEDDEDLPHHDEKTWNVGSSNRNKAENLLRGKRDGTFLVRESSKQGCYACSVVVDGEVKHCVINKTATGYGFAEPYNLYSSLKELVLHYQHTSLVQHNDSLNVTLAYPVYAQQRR
ATM, sequence (Q13315 whole entry): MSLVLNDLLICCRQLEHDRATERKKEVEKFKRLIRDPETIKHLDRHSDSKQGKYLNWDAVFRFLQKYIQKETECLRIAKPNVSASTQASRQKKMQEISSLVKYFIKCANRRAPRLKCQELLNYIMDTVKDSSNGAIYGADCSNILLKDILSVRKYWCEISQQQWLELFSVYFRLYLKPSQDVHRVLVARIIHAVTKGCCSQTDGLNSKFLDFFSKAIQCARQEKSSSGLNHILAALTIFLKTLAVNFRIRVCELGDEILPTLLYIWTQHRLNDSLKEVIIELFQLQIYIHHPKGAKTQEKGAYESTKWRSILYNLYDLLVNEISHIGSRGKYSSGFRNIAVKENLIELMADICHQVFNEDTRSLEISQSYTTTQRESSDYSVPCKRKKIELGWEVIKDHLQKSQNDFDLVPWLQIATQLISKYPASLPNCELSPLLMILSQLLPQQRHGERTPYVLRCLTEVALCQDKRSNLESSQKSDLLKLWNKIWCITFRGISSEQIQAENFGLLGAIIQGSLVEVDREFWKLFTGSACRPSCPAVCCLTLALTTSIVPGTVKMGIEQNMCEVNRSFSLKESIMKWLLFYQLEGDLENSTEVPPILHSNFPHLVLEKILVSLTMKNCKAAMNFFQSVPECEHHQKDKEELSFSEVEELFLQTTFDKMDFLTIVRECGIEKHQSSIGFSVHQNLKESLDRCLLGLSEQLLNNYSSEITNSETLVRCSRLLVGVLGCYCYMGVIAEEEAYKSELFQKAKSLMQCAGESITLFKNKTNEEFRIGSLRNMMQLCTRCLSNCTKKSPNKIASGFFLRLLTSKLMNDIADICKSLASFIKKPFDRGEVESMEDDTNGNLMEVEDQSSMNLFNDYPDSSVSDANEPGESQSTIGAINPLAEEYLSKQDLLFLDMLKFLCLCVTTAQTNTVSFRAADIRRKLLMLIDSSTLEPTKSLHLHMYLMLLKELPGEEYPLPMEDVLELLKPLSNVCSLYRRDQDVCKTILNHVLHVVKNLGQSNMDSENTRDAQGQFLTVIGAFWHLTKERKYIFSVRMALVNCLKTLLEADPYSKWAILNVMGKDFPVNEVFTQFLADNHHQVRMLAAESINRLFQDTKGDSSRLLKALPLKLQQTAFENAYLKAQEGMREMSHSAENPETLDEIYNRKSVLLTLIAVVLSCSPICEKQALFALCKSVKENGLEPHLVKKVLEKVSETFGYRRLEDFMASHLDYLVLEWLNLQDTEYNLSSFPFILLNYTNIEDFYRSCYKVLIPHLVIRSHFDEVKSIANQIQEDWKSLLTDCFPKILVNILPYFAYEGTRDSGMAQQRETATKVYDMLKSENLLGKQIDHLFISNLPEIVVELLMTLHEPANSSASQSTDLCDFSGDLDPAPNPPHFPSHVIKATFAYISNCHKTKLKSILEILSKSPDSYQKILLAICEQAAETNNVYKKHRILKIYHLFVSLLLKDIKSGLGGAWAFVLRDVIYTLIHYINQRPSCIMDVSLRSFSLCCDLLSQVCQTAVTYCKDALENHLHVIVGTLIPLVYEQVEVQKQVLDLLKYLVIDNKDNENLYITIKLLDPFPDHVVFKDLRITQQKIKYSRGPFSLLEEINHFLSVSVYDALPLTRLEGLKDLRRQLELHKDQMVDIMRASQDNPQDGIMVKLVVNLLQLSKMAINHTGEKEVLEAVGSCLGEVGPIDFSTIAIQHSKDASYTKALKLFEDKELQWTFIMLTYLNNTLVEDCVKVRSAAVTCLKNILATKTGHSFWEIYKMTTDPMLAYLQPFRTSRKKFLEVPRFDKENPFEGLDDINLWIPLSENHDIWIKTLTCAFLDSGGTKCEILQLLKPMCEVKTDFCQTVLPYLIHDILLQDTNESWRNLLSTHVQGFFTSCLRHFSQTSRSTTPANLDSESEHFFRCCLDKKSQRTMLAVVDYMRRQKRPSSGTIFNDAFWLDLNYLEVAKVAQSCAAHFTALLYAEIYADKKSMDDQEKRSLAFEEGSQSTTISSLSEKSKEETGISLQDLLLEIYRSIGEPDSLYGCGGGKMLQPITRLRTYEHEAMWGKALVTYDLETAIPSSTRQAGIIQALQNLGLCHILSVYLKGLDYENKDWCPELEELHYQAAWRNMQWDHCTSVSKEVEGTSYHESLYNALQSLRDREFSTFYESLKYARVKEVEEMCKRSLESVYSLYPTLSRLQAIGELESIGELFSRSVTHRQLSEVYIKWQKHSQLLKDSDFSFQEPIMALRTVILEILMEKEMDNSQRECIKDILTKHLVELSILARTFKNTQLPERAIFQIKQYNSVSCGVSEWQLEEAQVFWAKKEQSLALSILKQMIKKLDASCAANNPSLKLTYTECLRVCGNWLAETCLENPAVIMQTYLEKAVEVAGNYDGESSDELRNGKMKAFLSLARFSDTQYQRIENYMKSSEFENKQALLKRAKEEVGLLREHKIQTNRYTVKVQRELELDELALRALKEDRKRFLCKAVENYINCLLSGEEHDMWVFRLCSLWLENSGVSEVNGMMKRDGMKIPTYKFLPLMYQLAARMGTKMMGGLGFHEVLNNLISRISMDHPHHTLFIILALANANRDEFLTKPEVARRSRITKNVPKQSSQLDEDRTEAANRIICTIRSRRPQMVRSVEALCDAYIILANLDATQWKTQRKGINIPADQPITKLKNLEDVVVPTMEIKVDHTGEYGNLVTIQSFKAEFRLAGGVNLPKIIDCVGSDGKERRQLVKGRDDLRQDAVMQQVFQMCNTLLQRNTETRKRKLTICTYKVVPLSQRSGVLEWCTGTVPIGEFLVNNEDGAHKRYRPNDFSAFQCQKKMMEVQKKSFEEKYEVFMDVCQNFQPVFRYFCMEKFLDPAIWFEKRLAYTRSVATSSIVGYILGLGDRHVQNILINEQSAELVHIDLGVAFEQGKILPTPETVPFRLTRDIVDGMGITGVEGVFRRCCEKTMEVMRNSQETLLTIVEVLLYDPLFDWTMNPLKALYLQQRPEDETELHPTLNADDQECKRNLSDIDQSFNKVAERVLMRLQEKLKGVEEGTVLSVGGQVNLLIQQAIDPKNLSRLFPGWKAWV

IC50 [1, 5] [nM] | IC50 [2] [nM] | IC50 ([3]; class symbol) [nM] | IC50 [4] [nM] | IC50 ([1]; class symbol) [nM] | IC50 ([3]; read-out: ATM HTRF 10 μM ATP IC50, class symbol) [nM] | Compound
< 1 | 10 to 100 | 10 to 100 | 100 to 1000 |  |  | COC12CCC(n3c(=O)n(C)c4cnc(Nc5cc6nccnc6cc5C)nc43)(CC1)C2 [Compound 9, 9-(4-methoxybicyclo[2.2.1]heptan-1-yl)-7-methyl-2-((7-methylquinoxalin-6-yl)amino)-7,9-dihydro-8H-purin-8-one]
 | ≥ 1000 | 1 to 10 | ≥ 1000 | 1 to 10 |  | Cc1cc2ncnn2cc1Nc1ncc2c(n1)n(C13CC(C(F)(F)F)(C1)C3)c(=O)n2C [Compound 18, 7-methyl-2-((7-methyl-[1,2,4]triazolo[1,5-a]pyridin-6-yl)amino)-9-(3-(trifluoromethyl)bicyclo[1.1.1]pentan-1-yl)-7,9-dihydro-8H-purin-8-one]
 | ≥ 1000 | 100 to 1000 | 100 to 1000 | 1 to 10 |  | COC12CCC(N3CC(=O)N(C)c4cnc(Nc5cc6c(cc5C)OCO6)nc43)(CC1)C2 [Compound 63, 8-(4-methoxybicyclo[2.2.1]heptan-1-yl)-5-methyl-2-((6-methylbenzo[d][1,3]dioxol-5-yl)amino)-7,8-dihydropteridin-6(5H)-one]
 | 100 to 1000 | 10 to 100 | ≥ 1000 | 1 to 10 |  | Cc1cc(-c2cnn(C)c2)ncc1Nc1ncc2c(n1)N(C13CC(F)(C1)C3)C(=O)C21CC1 [Compound 75, 7′-(3-fluorobicyclo[1.1.1]pentan-1-yl)-2′-((4-methyl-6-(1-methyl-1H-pyrazol-4-yl)pyridin-3-yl)amino)spiro[cyclopropane-1,5′-pyrrolo[2,3-d]pyrimidin]-6′(7′H)-one]
< 1 | 10 to 100 | 100 to 1000 | 100 to 1000 |  |  | Cc1cc2ncnn2cc1Nc1ncc2c(n1)N(C13CCC(O)(CC1)C3)C(=O)C21CC1 [Compound 66, 7′-(4-hydroxybicyclo[2.2.1]heptan-1-yl)-2′-((7-methyl-[1,2,4]triazolo[1,5-a]pyridin-6-yl)amino)spiro[cyclopropane-1,5′-pyrrolo[2,3-d]pyrimidin]-6′(7′H)-one]
 | 100 to 1000 | 100 to 1000 | ≥ 1000 | 1 to 10 |  | COC12CCC(n3c(=O)n(C)c4cnc(Nc5cc(F)c(C(N)=O)cc5C)nc43)(C1)C2 [Compound 40, 2-fluoro-4-((9-(4-methoxybicyclo[2.1.1]hexan-1-yl)-7-methyl-8-oxo-8,9-dihydro-7H-purin-2-yl)amino)-5-methylbenzamide]

The remaining lines, values behind:

Compound | IC50 [1, 5] [nM] | IC50 [2] [nM] | IC50 ([3]; class symbol) [nM] | IC50 [4] [nM] | IC50 ([1]; class symbol) [nM] | IC50 ([3]; read-out: ATM HTRF 10 μM ATP IC50, class symbol) [nM]
Cc1cc2c(cc1Nc1ncc3c(C)nn(C45CC(C4)C5)c3n1)OCO2 [Compound 48, 1-(bicyclo[1.1.1]pentan-1-yl)-3-methyl-N-(6-methylbenzo[d][1,3]dioxol-5-yl)-1H-pyrazolo[3,4-d]pyrimidin-6-amine] |  | ≥ 1000 | 100 to 1000 | ≥ 1000 | 1 to 10 | 
Cc1cc2nsnc2cc1Nc1ncc2c(n1)N(C13CCC(O)(CC1)C3)CC(=O)N2C [Compound 55, 8-{4-Hydroxybicyclo[2.2.1]heptan-1-yl}-5-methyl-2-[(6-methyl-2,1,3-benzothiadiazol-5-yl)amino]-5,6,7,8-tetrahydropteridin-6-one] | < 1 | 10 to 100 | 1 to 10 | 100 to 1000 |  | 
Cc1cc2ncnn2cc1Nc1ncc2c(n1)n(C13CC(CC#N)(C1)C3)c(=O)n2C [Compound 22, 2-(3-(7-methyl-2-((7-methyl-[1,2,4]triazolo[1,5-a]pyridin-6-yl)amino)-8-oxo-7,8-dihydro-9H-purin-9-yl)bicyclo[1.1.1]pentan-1-yl)acetonitrile] |  | 100 to 1000 | 1 to 10 | ≥ 1000 | 1 to 10 | 
Cc1cc2c(cc1Nc1ncc3c(n1)n(C14CC(C(F)(F)F)(C1)C4)c(=O)n3C)OCO2 [Compound 19, 7-methyl-2-((6-methylbenzo[d][1,3]dioxol-5-yl)amino)-9-(3-(trifluoromethyl)bicyclo[1.1.1]pentan-1-yl)-7,9-dihydro-8H-purin-8-one] |  | ≥ 1000 | 100 to 1000 | ≥ 1000 | 1 to 10 | 
COC12CCC(n3c(=O)n(C)c4cnc(Nc5cc(F)c(-c6cnco6)cc5C)nc43)(C1)C2 [Compound 41, 2-((5-fluoro-2-methyl-4-(oxazol-5-yl)phenyl)amino)-9-(4-methoxybicyclo[2.1.1]hexan-1-yl)-7-methyl-7,9-dihydro-8H-purin-8-one] |  | 100 to 1000 | 1 to 10 | ≥ 1000 | 1 to 10 | 
Cc1cc2c(cc1Nc1ncc3c(n1)N(C14CCC(O)(CC1)C4)CC(=O)N3C)OCO2 [Compound 52, 8-{4-Hydroxybicyclo[2.2.1]heptan-1-yl}-5-methyl-2-[(6-methyl-2H-1,3-benzodioxol-5-yl)amino]-5,6,7,8-tetrahydropteridin-6-one] |  | ≥ 1000 |  | ≥ 1000 | 10 to 100 | ≥ 1000
Cc1cc(-c2cnco2)ncc1Nc1ncc2c(n1)N(C13CC(F)(C1)C3)C(=O)C21CC1 [Compound 74, 7′-(3-fluorobicyclo[1.1.1]pentan-1-yl)-2′-((4-methyl-6-(oxazol-5-yl)pyridin-3-yl)amino)spiro[cyclopropane-1,5′-pyrrolo[2,3-d]pyrimidin]-6′(7′H)-one] |  | 100 to 1000 | 10 to 100 | ≥ 1000 | 1 to 10 | 
Cc1cc2nccnc2cc1Nc1ncc2c(n1)n(C13CC(F)(C1)C3)c(=O)n2C [Compound 15, 9-(3-fluorobicyclo[1.1.1]pentan-1-yl)-7-methyl-2-((7-methylquinoxalin-6-yl)amino)-7,9-dihydro-8H-purin-8-one] |  | 100 to 1000 | 100 to 1000 | ≥ 1000 | 1 to 10 | 
COC12CCC(N3CC(=O)N(C)c4cnc(Nc5cc6cccnc6cc5C)nc43)(CC1)C2 [Compound 65, 8-(4-methoxybicyclo[2.2.1]heptan-1-yl)-5-methyl-2-((7-methylquinolin-6-yl)amino)-7,8-dihydropteridin-6(5H)-one] | < 1 | 10 to 100 | 1 to 10 | 100 to 1000 |  | 
Cc1cc2ncnn2cc1Nc1ncc2c(C)nn(C34CC(C3)C4)c2n1 [Compound 47, 1-(bicyclo[1.1.1]pentan-1-yl)-3-methyl-N-(7-methyl-[1,2,4]triazolo[1,5-a]pyridin-6-yl)-1H-pyrazolo[3,4-d]pyrimidin-6-amine] |  | ≥ 1000 | 100 to 1000 | ≥ 1000 | 1 to 10 | 
COC12CCC(N3CC(=O)N(C)c4cnc(Nc5cc6nsnc6cc5C)nc43)(CC1)C2 [Compound 64, 8-(4-methoxybicyclo[2.2.1]heptan-1-yl)-5-methyl-2-((6-methylbenzo[c][1,2,5]thiadiazol-5-yl)amino)-7,8-dihydropteridin-6(5H)-one] | < 1 | 10 to 100 | 1 to 10 | 100 to 1000 |  | 
COC12CCC(n3c(=O)n(C)c4cnc(Nc5cn6ncnc6cc5C)nc43)(C1)C2 [Compound 29, 9-(4-methoxybicyclo[2.1.1]hexan-1-yl)-7-methyl-2-((7-methyl-[1,2,4]triazolo[1,5-a]pyridin-6-yl)amino)-7,9-dihydro-8H-purin-8-one] |  | ≥ 1000 | 100 to 1000 | ≥ 1000 | 1 to 10 | 
COCC12CC(n3c(=O)n(C)c4cnc(Nc5cc6c(cc5C)OCO6)nc43)(C1)C2 [Compound 21, 9-(3-(methoxymethyl)bicyclo[1.1.1]pentan-1-yl)-7-methyl-2-((6-methylbenzo[d][1,3]dioxol-5-yl)amino)-7,9-dihydro-8H-purin-8-one] |  | ≥ 1000 | 10 to 100 | ≥ 1000 | 1 to 10 | 
